These results are taken from US9896512B2, “Antitumor peptide derived from a complementarity determining region of a humanized monoclonal antibody to NAP12B transporter” (Recepta Biopharma S.A., priority 2010, dated 2018).

Assay [1] has as its system melanoma B16F10-Nex2 cells. As to the kind of experiment: Alanine scanning series cell adhesion assay (MTT after trypsin-EDTA). The format is cell-based, murine. The conditions noted are these: 1 mM peptide, 24 hours. The method, then:
The peptide RB10 (SEQ ID NO: 9) was engineered to replace each amino acid by alanine using Ala-scan methodology, and thus help evaluate the role of each amino acid on biological effect, specifically on the hyper-adherence observed with 1 mM peptide.
For this purpose, viable melanoma B16F10-Nex2 cells (1×10^4)/well were distributed on a 96-well culture plate and incubated for 4 hours. Fresh media containing 1 mM of the alanine-scanning series for RB10 was added and incubated for 24 hours. Treated cells were detached with 30 μl/well of trypsin-EDTA for five minutes at 37° C. and gently washed with PBS. Cells were incubated for 4 hours with 0.5 mg/mL of MTT [3-(4,5-Dimethylthiazol-2-yl)-2,5-diphenyltetrazolium bromide] in fresh media and the formazan crystals were solubilized adding 1 volume of a 10% SDS solution overnight. Intensity was measured using a plate reader at 570 nm. […] The 100% value for each peptide represented the treated cells that had not been trypsinized.

Assay [2] deals with B16F10-Nex2 melanoma cells. Briefly: Cell migration, wound healing assay. The format is cell-based, murine. Particulars: peptide 500 μM, 24 hours after wounding. On the procedure: For the migration studies, 5×10^5 or 10^6 cells were distributed on 6-well plates and let them to adhere for 2 hours at 37° C./5% CO2. The culture medium was changed and the peptide was added at 500 μM overnight. The cell monolayer was “wounded” with a P1000 tip and incubated for 24 hours. Images of untreated cells (control) and peptide treated cells were captured with a JENOPTIK camera. Cell numbers (nuclei) were determined using the Pixcavator software version 5.0.
Viable B16F10-Nex2 cells (5×105)/well were distributed on a 6-well culture plate and incubated overnight at 37° C. in a humidified chamber with 5% CO2. A P1000 tip was used for wounding the cell monolayer and the image was immediately captured (0 hour) using a camera (Jenoptik) with the software Progres 2.8. After 24 hours a new image of the same field was obtained and recorded (24 hours).
Viable B16F10-Nex2 cells (3×10^5)/well were distributed in a 12-well culture plate and incubated for 4 hours at 37° C. in a humidified chamber with 5% CO2. Fresh medium containing RB10 (SEQ ID NO: 9) at different concentrations was added to the wells and incubated again for 4 hours. The monolayer wounding was performed as described above in Example 12, and images obtained accordingly. After 24 hours a new image in the same field was obtained and recorded (24 hours). […] Magnification ×100.

Assay [3] concerns B16F10-Nex2 melanoma cells. Briefly: In vivo protection against lung colonization (metastatic melanoma model). Further details: species or system C57B1/6 mice. Particulars: 250 μg i.p. on days 1, 3, 5, 7, 9, 11; lungs after 22 days. On the procedure: (§1) Details of the in vitro tumor cell growth, cytotoxicity tests, determination of viable cells and in vivo protection experiments with B16F10 cells in a mouse metastatic model are described in Polonelli et al. (PLoS One. 3(6):e2371, 2008) and Dobroff et al. (Translat. Onc., 3: 204-217, 2010).
Peptides RB9 and RB10 along with the apoptotic peptide A4H3, a true microantibody of cytotoxic anti-melanoma mAb (A4) (Dobroff et al., Translat. Onc., 3: 204-217, 2010), were tested for their protective effects against lung colonization by B16F10-Nex2 melanoma cells (2×105) injected intravenously in C57B1/6 mice (6 animals/group). Peptides were intraperitoneally administered (250 μg i.p.) on days 1, 3, 5, 7, 9, 11 after tumor cell challenge. Lungs of peptide-treated animals are shown in FIG. 5 after 22 days of tumor challenge. As noticed, peptide treatment was interrupted 10 days before animal sacrifice.
In vivo protection by peptides RB9 and RB10 (and A4H3 control) against lung colonization by B16F10-Nex2 melanoma cells (2×105) injected intravenously in C57B1/6 mice (6 animals/group) is shown in FIG. 6. The other 5 CDRs of RebMab200 (SEQ ID NOs: 7, 10, 11, 12, 13) were unprotective in vivo. Peptides were administered in the same way as described above, and the number of lung nodules was determined.

In assay [4] the test system is tumor cells. Briefly: Antitumor activity of RebMab 200 CDR peptides. The format is cell-based.
Excerpt: as §1
Amidated RebMab 200 CDR H2 (SEQ ID NO: 7) shares up to sixteen (16) identical amino acids with similar H2 fragments from several murine antibodies of various specificities.

Positions of bridges follow the written chain, without caps; N, C: chain ends. Non-standard residues stand in square brackets, D forms with d. No end group written: not given here. dCit = NC(=O)NCCC[C@@H](N)C(=O)O

Consider CARGATARATFAYWGQG-NH2 [RB10 A5], for which the trypsin/EDTA-resistant cell adherence result in assay [1] is on record as “normally detached”. Take CARAETARATFAYWGQG-NH2 [RB10 A4]: in assay [2], the “inhibition of cell migration (words)” value is “partial inhibition”. Further, the trypsin/EDTA-resistant cell adherence result in assay [1] is given as “high trypsin/EDTA-resistant cell adherence”. For the substance SASQDIGNFLN-NH2 [RB12], the “protection against lung colonization (lung nodules)” value (shortened to “protection”) in assay [3] was “unprotective”. In addition, the antitumor activity entry in assay [4] is “no antitumor activity”. On to YTSSLYS-NH2 [RB13], for which the “protection” value in assay [3] is reported as “unprotective”. Moreover, in assay [4], the antitumor activity entry is “no antitumor activity”. In the case of “YWCRAAFTTEAGRACQGG-NH2 (disulfide 3-15; N-terminus assumed; SMILES C[C@@H]1NC(=O)[C@H](C)NC(=O)[C@H](CCCNC(=N)N)NC(=O)[C@@H](NC(=O)[C@H](Cc2c[nH]c3ccccc23)NC(=O)[C@@H](N)Cc2ccc(O)cc2)CSSC[C@@H](C(=O)N[C@@H](CCC(N)=O)C(=O)NCC(=O)NCC(N)=O)NC(=O)[C@H](C)NC(=O)[C@H](CCCNC(=N)N)NC(=O)CNC(=O)[C@H](C)NC(=O)[C@H](CCC(=O)O)NC(=O)[C@H]([C@@H](C)O)NC(=O)[C@H]([C@@H](C)O)NC(=O)[C@H](Cc2ccccc2)NC1=O) [RB9 Sc2]”, the “inhibition of cell migration (words)” value in assay [2] was “partial inhibition”. Same read-out and setting: then “C(dA)RGETA(dCit)ATFAYWGQ(dA)C-NH2 (C[dA]RGETA[dCit]ATFAYWGQ[dA]C-NH2; disulfide 1-18; N-terminus assumed; SMILES C[C@@H]1NC(=O)[C@H](Cc2ccccc2)NC(=O)[C@H]([C@@H](C)O)NC(=O)[C@H](C)NC(=O)[C@@H](CCCNC(N)=O)NC(=O)[C@H](C)NC(=O)[C@H]([C@@H](C)O)NC(=O)[C@H](CCC(=O)O)NC(=O)CNC(=O)[C@H](CCCNC(=N)N)NC(=O)[C@@H](C)NC(=O)[C@@H](N)CSSC[C@@H](C(N)=O)NC(=O)[C@@H](C)NC(=O)[C@H](CCC(N)=O)NC(=O)CNC(=O)[C@H](Cc2c[nH]c3ccccc23)NC(=O)[C@H](Cc2ccc(O)cc2)NC1=O) [RB9 M1]”, with “partial inhibition”; and “C(dA)RGETARATFAYC-NH2 (C[dA]RGETARATFAYC-NH2; disulfide 1-14; N-terminus assumed; SMILES C[C@@H]1NC(=O)[C@H](CCCNC(=N)N)NC(=O)[C@H](C)NC(=O)[C@H]([C@@H](C)O)NC(=O)[C@H](CCC(=O)O)NC(=O)CNC(=O)[C@H](CCCNC(=N)N)NC(=O)[C@@H](C)NC(=O)[C@@H](N)CSSC[C@@H](C(N)=O)NC(=O)[C@H](Cc2ccc(O)cc2)NC(=O)[C@H](C)NC(=O)[C@H](Cc2ccccc2)NC(=O)[C@H]([C@@H](C)O)NC1=O) [RB9 M3]”, with “partial inhibition”; and “CGTFEYRAQAGWAGRTAC-NH2 (disulfide 1-18; N-terminus assumed; SMILES C[C@@H]1NC(=O)[C@H](Cc2c[nH]c3ccccc23)NC(=O)CNC(=O)[C@H](C)NC(=O)[C@H](CCC(N)=O)NC(=O)[C@H](C)NC(=O)[C@H](CCCNC(=N)N)NC(=O)[C@H](Cc2ccc(O)cc2)NC(=O)[C@H](CCC(=O)O)NC(=O)[C@H](Cc2ccccc2)NC(=O)[C@H]([C@@H](C)O)NC(=O)CNC(=O)[C@@H](N)CSSC[C@@H](C(N)=O)NC(=O)[C@H](C)NC(=O)[C@H]([C@@H](C)O)NC(=O)[C@H](CCCNC(=N)N)NC(=O)CNC1=O) [RB9 Scramble]”, with “partial inhibition”.

For AARGETARATFAYWGQG-NH2 [RB10 A1], the “inhibition of cell migration (words)” value in assay [2] is listed as “non-inhibition”. The trypsin/EDTA-resistant cell adherence entry in assay [1] was “normally detached”. As to CGTFEYRAQAGWAGRTA-NH2 [RB10 Scramble], the “inhibition of cell migration (words)” value in assay [2] is “partial inhibition”.

With CAAGETARATFAYWGQG-NH2 [RB10 A3], the “inhibition of cell migration (words)” value in assay [2] is “partial inhibition”. Moreover, in assay [1], the trypsin/EDTA-resistant cell adherence entry is “normally detached”. As to “CARGETA(dCit)AT(dF)AYWGQ(dA)-NH2 (CARGETA[dCit]AT[dF]AYWGQ[dA]-NH2; N-terminus assumed; SMILES C[C@H](NC(=O)[C@@H](NC(=O)[C@H](CCC(=O)O)NC(=O)CNC(=O)[C@H](CCCNC(=N)N)NC(=O)[C@H](C)NC(=O)[C@@H](N)CS)[C@@H](C)O)C(=O)N[C@H](CCCNC(N)=O)C(=O)N[C@@H](C)C(=O)N[C@H](C(=O)N[C@H](Cc1ccccc1)C(=O)N[C@@H](C)C(=O)N[C@@H](Cc1ccc(O)cc1)C(=O)N[C@@H](Cc1c[nH]c2ccccc12)C(=O)NCC(=O)N[C@@H](CCC(N)=O)C(=O)N[C@H](C)C(N)=O)[C@@H](C)O) [RB10 M1]”, the “inhibition of cell migration (words)” value in assay [2] is recorded as “partial inhibition”. Consider CARGETA(dCit)ATFAYWGQGC-NH2 [RB9 M4], for which the “inhibition of cell migration (words)” value in assay [2] was “partial inhibition”.

Turning to “C(dA)RGETA(dCit)AT(dF)AYWGQ(dA)C-NH2 (C[dA]RGETA[dCit]AT[dF]AYWGQ[dA]C-NH2; disulfide 1-18; N-terminus assumed; SMILES C[C@@H]1NC(=O)[C@H]([C@@H](C)O)NC(=O)[C@H](CCC(=O)O)NC(=O)CNC(=O)[C@H](CCCNC(=N)N)NC(=O)[C@@H](C)NC(=O)[C@@H](N)CSSC[C@@H](C(N)=O)NC(=O)[C@@H](C)NC(=O)[C@H](CCC(N)=O)NC(=O)CNC(=O)[C@H](Cc2c[nH]c3ccccc23)NC(=O)[C@H](Cc2ccc(O)cc2)NC(=O)[C@H](C)NC(=O)[C@@H](Cc2ccccc2)NC(=O)[C@H]([C@@H](C)O)NC(=O)[C@H](C)NC(=O)[C@@H](CCCNC(N)=O)NC1=O) [RB9 M2]”, the “inhibition of cell migration (words)” value in assay [2] is “partial inhibition”.

CARGEAARATFAYWGQG-NH2 [RB10 A6]: in assay [2], the “inhibition of cell migration (words)” value is “partial inhibition”. Moreover, the trypsin/EDTA-resistant cell adherence entry in assay [1] is given as “high trypsin/EDTA-resistant cell adherence”. As to CARGETAAATFAYWGQG-NH2 [RB10 A8], in assay [2], the “inhibition of cell migration (words)” value is recorded as “partial inhibition”. The trypsin/EDTA-resistant cell adherence entry in assay [1] was “normally detached”.

In the case of “C(dA)RGETA(dCit)ATFAYWGQ(dA)-NH2 (C[dA]RGETA[dCit]ATFAYWGQ[dA]-NH2; N-terminus assumed; SMILES C[C@H](NC(=O)[C@H](Cc1ccccc1)NC(=O)[C@@H](NC(=O)[C@H](C)NC(=O)[C@@H](CCCNC(N)=O)NC(=O)[C@H](C)NC(=O)[C@@H](NC(=O)[C@H](CCC(=O)O)NC(=O)CNC(=O)[C@H](CCCNC(=N)N)NC(=O)[C@@H](C)NC(=O)[C@@H](N)CS)[C@@H](C)O)[C@@H](C)O)C(=O)N[C@@H](Cc1ccc(O)cc1)C(=O)N[C@@H](Cc1c[nH]c2ccccc12)C(=O)NCC(=O)N[C@@H](CCC(N)=O)C(=O)N[C@H](C)C(N)=O) [RB10 M4]”, the “inhibition of cell migration (words)” value in assay [2] was “partial inhibition”. Turning to QQYSKLPLT-NH2 [RB14], the “protection” value in assay [3] is “unprotective”. Moreover, the antitumor activity result in assay [4] is reported as “no antitumor activity”.

In the case of C(dA)RGETARATFAYWGQGC-NH2 [RB9 M5], in assay [2], the “inhibition of cell migration (words)” value was “partial inhibition”. As for GYTFTGYNIH-NH2 [RB11], the “protection” value in assay [3] is listed as “unprotective”. For the same substance, the antitumor activity entry in assay [4] is given as “no antitumor activity”.

For CFIARAGWYATEARGGQC-NH2 [RB9 Sc3], the “inhibition of cell migration (words)” value in assay [2] is “partial inhibition”.
